Assay results reported in ChEMBL document CHEMBL4406831, “Discovery of fused heterocyclic carboxamide derivatives as novel α7-nAChR agonists: Synthesis, preliminary SAR and biological evaluation” (Eur J Med Chem, 2019).
Activity calls are given as the source filed them. No cut-off for these calls is given here.

How the values were obtained:
Format in all cases: cell-based
[1] = target: T1, Neuronal acetylcholine receptor subunit alpha-7 (Homo sapiens, UniProt P36544); assay: Agonist activity at human alpha7 nAChR expressed in Xenopus laevis oocytes assessed as induction of channel current at 100 uM at -90 mV holding potential by two-electrode voltage clamp method relative to acetylcholine
[2] = target: T1, Neuronal acetylcholine receptor subunit alpha-7; assay: Agonist activity at human alpha7 nAChR expressed in Xenopus laevis oocytes assessed as induction of channel current at 10 uM at -90 mV holding potential by two-electrode voltage clamp method relative to acetylcholine
[3] = target: T1, Neuronal acetylcholine receptor subunit alpha-7; assay: Agonist activity at human alpha7 nAChR expressed in Xenopus laevis oocytes assessed as induction of channel current at -90 mV holding potential by two-electrode voltage clamp method
[4] = target: T1, Neuronal acetylcholine receptor subunit alpha-7; assay: Agonist activity at human alpha7 nAChR expressed in Xenopus laevis oocytes assessed as peak current amplitude at -90 mV holding potential by two-electrode voltage clamp method relative to acetylcholine
[5] = target: T1, Neuronal acetylcholine receptor subunit alpha-7; assay: Agonist activity at human alpha7 nAChR expressed in Xenopus laevis oocytes assessed as channel current at 10 uM at -90 mV holding potential in presence of 10 nM alpha7 nAChR antagonist, MLA by two-electrode voltage clamp method
[6] = target: T1, Neuronal acetylcholine receptor subunit alpha-7; assay: Induction of desensitization at human alpha7 nAChR expressed in Xenopus laevis oocytes assessed as inhibition of acetylcholine induced current treated with compound prior to 100 uM acetylcholine challenge at -90 mV holding potential by two-electrode voltage clamp method
[7] = target: T1, Neuronal acetylcholine receptor subunit alpha-7; assay: Agonist activity at human alpha7 nAChR expressed in Xenopus laevis oocytes preincubated with 1 uM alpha7 type-2 PAM PNU-120596 at -90 mV holding potential by two-electrode voltage clamp method
[8] = target: T2, Neuronal acetylcholine receptor; alpha3/beta4 (Homo sapiens, UniProt P30926+P32297); assay: Agonist activity at alpha3beta4 nAChR (unknown origin) expressed in Xenopus laevis oocytes assessed as channel current at 10 uM at -90 mV holding potential by two-electrode voltage clamp method
[9] = target: T3, Neuronal acetylcholine receptor; alpha4/beta2 (Homo sapiens, UniProt P17787+P43681); assay: Agonist activity at alpha4beta2 nAChR (unknown origin) expressed in Xenopus laevis oocytes assessed as induction of current at 10 uM at -90 mV holding potential by two-electrode voltage clamp method
Homo sapiens [10] = organism: Homo sapiens; assay: Selectivity index, ratio of IC50 for alpha3beta4 nAChR (unknown origin) expressed in Xenopus laevis oocytes to EC50 for human alpha7 nAChR expressed in Xenopus laevis oocytes
Homo sapiens [11] = organism: Homo sapiens; assay: Selectivity index, ratio of EC50 for alpha4beta2 nAChR (unknown origin) expressed in Xenopus laevis oocytes to EC50 for human alpha7 nAChR expressed in Xenopus laevis oocytes
[12] = target: T4, 5-hydroxytryptamine receptor 3A (Homo sapiens) (UniProt P46098); assay: Agonist activity at human 5-HT3A receptor expressed in Xenopus laevis oocytes at 10 uM at -90 mV holding potential by two-electrode voltage clamp method
T4 sequence (whole entry): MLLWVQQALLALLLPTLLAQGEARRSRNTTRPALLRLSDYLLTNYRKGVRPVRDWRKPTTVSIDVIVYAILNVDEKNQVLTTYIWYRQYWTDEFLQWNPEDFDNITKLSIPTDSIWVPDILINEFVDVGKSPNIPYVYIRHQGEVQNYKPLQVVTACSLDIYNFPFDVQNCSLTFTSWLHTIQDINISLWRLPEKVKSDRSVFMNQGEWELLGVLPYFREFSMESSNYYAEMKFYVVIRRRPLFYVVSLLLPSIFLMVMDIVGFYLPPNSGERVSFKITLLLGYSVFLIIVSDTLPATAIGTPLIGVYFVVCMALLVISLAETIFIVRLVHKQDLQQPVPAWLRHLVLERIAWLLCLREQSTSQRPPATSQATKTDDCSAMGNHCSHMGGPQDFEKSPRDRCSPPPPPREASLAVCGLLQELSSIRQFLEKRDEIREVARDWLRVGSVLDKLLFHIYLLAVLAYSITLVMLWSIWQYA

[13] = target: T4, 5-hydroxytryptamine receptor 3A (Homo sapiens); assay: (§1) Antagonist activity at human 5-HT3A receptor expressed in Xenopus laevis oocytes at -90 mV holding potential in presence of serotonin by two-electrode voltage clamp method
[14] = target: T5, 5-hydroxytryptamine receptor 3A (Homo sapiens, UniProt P46098); assay: as §1
T5 sequence (P46098 whole entry): T4 sequence (whole entry)

[15] = target: T2, Neuronal acetylcholine receptor; alpha3/beta4; assay: Antagonist activity at alpha3beta4 nAChR (unknown origin) expressed in Xenopus laevis oocytes assessed as inhibition of acetylcholine-induced channel current at -90 mV holding potential by two-electrode voltage clamp method
[16] = target: T3, Neuronal acetylcholine receptor; alpha4/beta2; assay: Agonist activity at alpha4beta2 nAChR (unknown origin) expressed in Xenopus laevis oocytes at -90 mV holding potential by two-electrode voltage clamp method
[17] = target: T1, Neuronal acetylcholine receptor subunit alpha-7; assay: Agonist activity at human alpha7 nAChR expressed in Xenopus laevis oocytes assessed as increase in channel current at 10 uM at -90 mV holding potential in presence of 10 nM alpha7 nAChR antagonist, MLA measured after 10 mins by two-electrode voltage clamp method
[18] = target: T4, 5-hydroxytryptamine receptor 3A (Homo sapiens); assay: Antagonist activity at human 5-HT3A receptor expressed in Xenopus laevis oocytes at 10 uM at -90 mV holding potential in presence of serotonin by two-electrode voltage clamp method
[19] = target: T2, Neuronal acetylcholine receptor; alpha3/beta4; assay: Agonist activity at alpha3beta4 nAChR (unknown origin) expressed in Xenopus laevis oocytes assessed as induction of current at 100 uM at -90 mV holding potential by two-electrode voltage clamp method

T1 sequence (P36544 whole entry): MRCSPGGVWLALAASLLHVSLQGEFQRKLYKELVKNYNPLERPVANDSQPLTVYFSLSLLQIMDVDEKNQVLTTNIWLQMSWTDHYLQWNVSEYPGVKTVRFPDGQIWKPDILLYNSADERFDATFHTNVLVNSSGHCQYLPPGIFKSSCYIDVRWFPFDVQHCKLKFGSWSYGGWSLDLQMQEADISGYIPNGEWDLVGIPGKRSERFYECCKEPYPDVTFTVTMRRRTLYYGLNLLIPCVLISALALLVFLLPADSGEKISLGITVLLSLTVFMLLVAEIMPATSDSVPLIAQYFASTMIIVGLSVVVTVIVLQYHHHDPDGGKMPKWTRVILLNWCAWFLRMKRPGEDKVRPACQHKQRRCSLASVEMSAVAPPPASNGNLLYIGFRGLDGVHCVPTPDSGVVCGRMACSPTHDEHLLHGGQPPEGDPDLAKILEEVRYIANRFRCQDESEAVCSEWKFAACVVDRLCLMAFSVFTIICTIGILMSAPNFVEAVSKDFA
T2 sequence (P30926 whole entry): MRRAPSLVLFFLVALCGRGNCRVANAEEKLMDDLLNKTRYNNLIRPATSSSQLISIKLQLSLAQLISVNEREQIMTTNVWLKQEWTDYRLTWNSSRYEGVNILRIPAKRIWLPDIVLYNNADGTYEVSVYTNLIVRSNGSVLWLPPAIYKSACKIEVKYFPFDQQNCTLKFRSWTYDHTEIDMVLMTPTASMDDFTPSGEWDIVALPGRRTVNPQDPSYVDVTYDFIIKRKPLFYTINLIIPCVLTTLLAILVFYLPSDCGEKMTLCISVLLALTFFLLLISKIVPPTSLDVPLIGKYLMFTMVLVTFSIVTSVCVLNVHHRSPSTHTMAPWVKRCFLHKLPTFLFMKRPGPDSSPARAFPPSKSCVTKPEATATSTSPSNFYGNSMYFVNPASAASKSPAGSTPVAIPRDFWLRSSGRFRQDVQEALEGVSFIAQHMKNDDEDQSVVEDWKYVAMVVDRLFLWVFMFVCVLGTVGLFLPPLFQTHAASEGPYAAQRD
T2 sequence (P32297 whole entry): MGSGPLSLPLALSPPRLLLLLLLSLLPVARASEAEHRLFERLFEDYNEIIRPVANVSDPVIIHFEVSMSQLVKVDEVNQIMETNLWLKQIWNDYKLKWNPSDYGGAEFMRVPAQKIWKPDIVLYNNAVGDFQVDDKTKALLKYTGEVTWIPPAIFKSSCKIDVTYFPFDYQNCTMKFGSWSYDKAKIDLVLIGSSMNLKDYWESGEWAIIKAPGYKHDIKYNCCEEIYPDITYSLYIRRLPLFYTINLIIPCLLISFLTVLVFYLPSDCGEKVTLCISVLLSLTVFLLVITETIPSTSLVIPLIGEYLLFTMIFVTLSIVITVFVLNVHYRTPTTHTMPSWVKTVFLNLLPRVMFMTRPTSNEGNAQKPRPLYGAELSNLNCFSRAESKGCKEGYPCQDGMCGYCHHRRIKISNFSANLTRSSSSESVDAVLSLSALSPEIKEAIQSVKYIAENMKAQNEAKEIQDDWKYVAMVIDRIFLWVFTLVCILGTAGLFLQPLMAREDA
T3 sequence (P17787 whole entry): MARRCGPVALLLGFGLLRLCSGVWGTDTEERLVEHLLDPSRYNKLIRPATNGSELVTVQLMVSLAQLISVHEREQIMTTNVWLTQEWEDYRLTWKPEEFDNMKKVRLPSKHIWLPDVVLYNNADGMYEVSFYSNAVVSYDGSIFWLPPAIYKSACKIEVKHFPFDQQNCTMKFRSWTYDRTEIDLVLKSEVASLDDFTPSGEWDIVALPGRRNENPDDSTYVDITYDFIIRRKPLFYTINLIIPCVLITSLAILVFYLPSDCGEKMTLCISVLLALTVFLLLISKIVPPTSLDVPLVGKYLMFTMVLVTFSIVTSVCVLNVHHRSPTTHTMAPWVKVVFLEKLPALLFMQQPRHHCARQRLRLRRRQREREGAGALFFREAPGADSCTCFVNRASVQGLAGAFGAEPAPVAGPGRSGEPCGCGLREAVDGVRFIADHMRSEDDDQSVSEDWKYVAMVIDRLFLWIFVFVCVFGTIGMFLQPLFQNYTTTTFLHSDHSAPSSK
T3 sequence (P43681 whole entry): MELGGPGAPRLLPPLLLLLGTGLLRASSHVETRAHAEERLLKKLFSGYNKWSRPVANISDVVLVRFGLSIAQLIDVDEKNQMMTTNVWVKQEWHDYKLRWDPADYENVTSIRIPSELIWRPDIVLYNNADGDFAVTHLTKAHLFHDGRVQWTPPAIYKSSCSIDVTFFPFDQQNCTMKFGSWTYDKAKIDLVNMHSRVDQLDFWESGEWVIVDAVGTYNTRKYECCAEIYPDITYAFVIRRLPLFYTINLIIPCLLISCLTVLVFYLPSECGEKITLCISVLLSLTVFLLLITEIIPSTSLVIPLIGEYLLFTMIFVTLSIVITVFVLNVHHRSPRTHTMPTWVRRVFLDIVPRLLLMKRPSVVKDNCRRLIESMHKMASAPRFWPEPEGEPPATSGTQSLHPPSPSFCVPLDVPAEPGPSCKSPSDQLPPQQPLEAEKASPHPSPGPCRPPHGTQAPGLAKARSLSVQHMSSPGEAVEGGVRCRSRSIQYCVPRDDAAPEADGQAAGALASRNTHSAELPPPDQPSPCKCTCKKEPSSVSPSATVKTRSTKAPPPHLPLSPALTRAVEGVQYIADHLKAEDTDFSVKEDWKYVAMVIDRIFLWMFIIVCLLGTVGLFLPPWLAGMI

C=CCOc1ccc2c(ccc3cc(C(=O)N[C@H]4CN5CCC4CC5)cn32)c1
Activity [1]: inactive

Cc1ccccc1-c1ccc2c(ccc3cc(C(=O)N[C@H]4CN5CCC4CC5)cn32)c1
Activity [1]: > 120% | Activity [2]: 60 to 120% | EC50 [3]: 3200 nM | Emax [4]: 23.1%

O=C(N[C@H]1CN2CCC1CC2)c1cc2ccc3cc(C4CC4)ccc3n2c1
Activity [2]: < 60%

Cc1ccc2c(ccc3cc(C(=O)N[C@H]4CN5CCC4CC5)cn32)c1
Activity [1]: > 120% | Activity [2]: > 120% | EC50 [3]: 1270 nM | Emax [4]: 29.2%

CC(C)(C)c1ccc(-c2ccc3c(ccc4cc(C(=O)N[C@H]5CN6CCC5CC6)cn43)c2)cc1
Activity [1]: 60 to 120% | Activity [2]: 60 to 120%

CCCC(C)Oc1ccc2c(ccc3cc(C(=O)N[C@H]4CN5CCC4CC5)cn32)c1 (stereo partly specified)
Activity [1]: inactive

O=C(N[C@H]1CN2CCC1CC2)c1cc2ccc3cc(OCc4ccc(F)cc4)ccc3n2c1
Activity [1]: < 60%

CCCOc1ccc2c(ccc3cc(C(=O)N[C@H]4CN5CCC4CC5)cn32)c1
Activity [1]: < 60% | Activity [2]: < 60%

O=C(N[C@H]1CN2CCC1CC2)c1cc2ccc3cc(-c4cccnc4)ccc3n2c1
Activity [1]: 60 to 120% | Activity [2]: < 60%

O=C(N[C@H]1CN2CCC1CC2)c1cc2ccc3ccccc3n2c1
Activity [2]: 60 to 120% | EC50 [3]: 1880 nM | Emax [4]: 72.4% | Activity [5]: inactive | IC50 [6]: 21.2 nM | inhibition [6]: Dose-dependent effect | Activity [7]: Dose-dependent effect | EC50 [7]: 120 nM | Activity [8]: inactive | Activity [9]: Active | Ratio IC50/EC50 (Homo sapiens [10]): 5 | Ratio EC50 (Homo sapiens [11]): 3 | Activity [12]: inactive | inhibition [13]: Dose-dependent effect | IC50 [14]: 710 nM | IC50 [15]: 10.1 µM | EC50 [16]: 6.14 µM | Activity [17]: Active | inhibition [18]: Active

O=C(N[C@H]1CN2CCC1CC2)c1cc2ccc3cc(F)ccc3n2c1
Activity [2]: 60 to 120% | EC50 [3]: 8270 nM | Emax [4]: 58.6%

O=C(N[C@H]1CN2CCC1CC2)c1cc2ccc3cc(OC4CCC4)ccc3n2c1
Activity [1]: < 60%

CC(=O)OCC[N+](C)(C)C
Activity [19]: Active

O=C(N[C@H]1CN2CCC1CC2)c1cc2ccc3cc(-c4ccc(F)cc4)ccc3n2c1
Activity [1]: inactive

C#CCOc1ccc2c(ccc3cc(C(=O)N[C@H]4CN5CCC4CC5)cn32)c1
Activity [2]: 60 to 120% | EC50 [3]: 7630 nM | Emax [4]: 34.5%

O=C(N[C@H]1CN2CCC1CC2)c1cc2ccc3cc(OC(F)F)ccc3n2c1
Activity [1]: 60 to 120% | Activity [2]: < 60%

O=C(N[C@H]1CN2CCC1CC2)c1cc2ccc3cc(N4CCCCC4)ccc3n2c1
Activity [2]: < 60%

CCC(CC)Oc1ccc2c(ccc3cc(C(=O)N[C@H]4CN5CCC4CC5)cn32)c1
Activity [1]: inactive

CC(C)Oc1ccc2c(ccc3cc(C(=O)N[C@H]4CN5CCC4CC5)cn32)c1
Activity [1]: inactive

O=C(N[C@H]1CN2CCC1CC2)c1cc2ccc3cc(OCc4cccnc4)ccc3n2c1
Activity [1]: 60 to 120%

O=C(N[C@H]1CN2CCC1CC2)c1cc2ccc3cc(Cl)ccc3n2c1
Activity [2]: < 60%

O=C(N[C@H]1CN2CCC1CC2)c1cc2ccc3cc(Br)ccc3n2c1
Activity [2]: < 60%

O=C(N[C@H]1CN2CCC1CC2)c1cc2ccc3cc(O)ccc3n2c1
Activity [1]: > 120% | EC50 [3]: 2000 nM | Emax [4]: 47.3%

O=C(N[C@H]1CN2CCC1CC2)c1cc2ccc3cc(N4CCCC4)ccc3n2c1
Activity [2]: < 60%

O=C(N[C@H]1CN2CCC1CC2)c1cc2n(c1)CCC2
Activity [1]: < 60%

O=C(N[C@H]1CN2CCC1CC2)c1cc2ccc3cc(-c4ccncc4)ccc3n2c1
Activity [1]: < 60%

COc1ccc2c(ccc3cc(C(=O)N[C@H]4CN5CCC4CC5)cn32)c1
Activity [2]: < 60%

O=C(N[C@H]1CN2CCC1CC2)c1cc2ccc3cc(OCc4ccccc4)ccc3n2c1
Activity [1]: < 60%

O=C(N[C@H]1CN2CCC1CC2)c1cc2n(c1)CCCC2
Activity [1]: < 60%

CC(C)COc1ccc2c(ccc3cc(C(=O)N[C@H]4CN5CCC4CC5)cn32)c1
Activity [2]: inactive

O=C(N[C@H]1CN2CCC1CC2)c1cc2cccc(Cl)c2s1 [ENCENICLINE]
EC50 [3]: 250 nM | Emax [4]: 27.6%

O=C(N[C@H]1CN2CCC1CC2)c1cc2ccc3cc(C(F)(F)F)ccc3n2c1
Activity [2]: < 60%

O=C(N[C@H]1CN2CCC1CC2)c1cc2ccc3cc(-c4ccsc4)ccc3n2c1
Activity [1]: < 60%

Cc1cc(-c2ccc3c(ccc4cc(C(=O)N[C@H]5CN6CCC5CC6)cn43)c2)ccn1
Activity [1]: < 60%

O=C(N[C@H]1CN2CCC1CC2)c1cc2ccc3cc(-c4ccccc4)ccc3n2c1
Activity [1]: 60 to 120% | Activity [2]: < 60%
